Results as given in patent publication US9137997B2 (priority 2011, dated 2015).

melting point: 171 to 176 °C
SMILES: Cc1ccc2sc3c(=O)n(C)c(=O)c=3sc2c1
